Biological target: Klenow fragment of DNA polymerase I (Escherichia coli, UniProt P00582)
Assay: competitive fluorescence anisotropy displacement of dtC^OTP
Assay type: binding

Chain of Klenow fragment of DNA polymerase I (P00582 324-928 limits assumed): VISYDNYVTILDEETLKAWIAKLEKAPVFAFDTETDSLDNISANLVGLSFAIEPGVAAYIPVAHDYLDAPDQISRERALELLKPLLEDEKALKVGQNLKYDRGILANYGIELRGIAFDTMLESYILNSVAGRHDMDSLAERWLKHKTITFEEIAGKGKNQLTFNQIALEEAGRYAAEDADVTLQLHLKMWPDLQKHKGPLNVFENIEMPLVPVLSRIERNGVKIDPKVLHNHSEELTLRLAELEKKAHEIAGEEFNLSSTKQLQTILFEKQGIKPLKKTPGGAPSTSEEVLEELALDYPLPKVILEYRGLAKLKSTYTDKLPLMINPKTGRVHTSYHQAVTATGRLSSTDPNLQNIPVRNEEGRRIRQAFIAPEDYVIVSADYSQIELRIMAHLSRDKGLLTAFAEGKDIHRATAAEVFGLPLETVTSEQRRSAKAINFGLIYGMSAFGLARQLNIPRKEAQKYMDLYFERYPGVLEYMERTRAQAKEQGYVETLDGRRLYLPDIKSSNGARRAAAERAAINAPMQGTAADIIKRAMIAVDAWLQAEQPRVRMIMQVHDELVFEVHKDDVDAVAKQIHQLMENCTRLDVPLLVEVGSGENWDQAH

Compound `Nc1ccn([C@H]2C[C@H](O)[C@@H](COP(=O)(O)OP(=O)(O)OP(=O)(O)O)O2)c(=O)n1` [dCTP] has an IC50 of 3.4 µM.
